Patent US11628164B2, “Composition containing salsolinol for treating liver cancer” (SUNGSHIN WOMEN'S UNIVERSITY R&DB FOUNDATION, priority 2020, dated 2023)

Legend:
[1] = tested on: Snai1, Vimentin genes in liver tissue; assay: Real-time quantitative PCR of liver tissue, DEN-induced liver cancer mouse model; format: in vivo, C57BL/6 mouse; details: DEN+SAL liver tissue, corrected with β-actin
Method: A normal mouse (M-Ctrl, n=5), a DEN-induced liver cancer mouse model (M-DEN, n=4), and a DEN-induced liver cancer mouse model treated with the salsolinol (M-DEN+SAL, n=5) are sacrificed, and liver tissues are obtained. And after that, trizol is added to lyse the liver tissues. 1 ml of a TRI reagent solution is added to the liver tissue, and after homogenization, centrifuge separation is performed at 4° C. and 12,000 rpm for 10 minutes. About 0.75 ml of the middle layer excluding the upper and lower debris is separated and put into a new tube. […]
After removing the supernatant, the RNA is washed with 75% ethanol, centrifuge separation is performed at 4° C. at 7,500 rpm for 5 minutes, and the remaining ethanol is evaporated at room temperature. The separated total RNA is quantified by using Nandrop 2000 (Thermo), and after that, cDNA is synthesized by using a reverse transcription reaction oligo dT primer and RT enzyme. By using the synthesized cDNA as a template, after addition of each primer and Bio-Rad SYBR mix (#1725270) and amplification by using a Bio-Rad Real-Time PCR instrument, analysis is performed by using quantitative software. The products amplified by real time PCR are quantified by using a comparative cycle threshold (Ct) method. […]

[2] = tested on: normal hepatocytes (NCTC1469); details: NCTC1469, from KR10-2019-0129765; cited from earlier work
SK-Hep1 = details: cited from earlier work
[3] = tested on: DEN-induced liver cancer mouse model (male); assay: DEN-induced liver cancer mouse model: liver weight, plasma AFP, tumor number, H&E; format: in vivo, C57BL/6 mouse
Method: The mouse used in the experiment are 7-week old male and female C57BL/6 mouse. The mouse is obtained from Orient Bio (ORIENT Bio, Gyeonggi-do Province, Korea) and is adapted in an environment that the contrast is controlled at a temperature of 22±2° C. and a humidity of 55 to 60% in 12-hour increments, and a standard diet is provided for 1 week. All animal experiments are performed in accordance with the regulations of the Laboratory Animal Ethics Committee of Sungshin Women's University. After adapting a male mouse born from the mating of the adapted mouse in the same environment for 2 weeks, a DEN-induced liver cancer mouse model is generated by a method of intraperitoneally administering a liver cancer-causing substance, diethylnitrosamine (DEN, 25 mg/kg). The salsolinol (200 mg/kg) is administered for 6 months through intraperitoneal injection three times per week from the time when the DEN-induced liver cancer mouse model (male) became 7 weeks of age. After the mouse is sacrificed, the experiment is performed. After the experiment is completed, the experimental animals are fasted for 4 hours, sacrificed with CO2 gas, and the blood collected from the heart is heparinized. And after that, centrifuge separation is performed at 3,000 rpm for 15 minutes to separate plasma. AFP (α-Fetoprotein) analysis is measured by enzyme-linked immunosorbent assay (ELISA). The separated plasma is diluted 20 times with a diluted solution, and after that, a 50 μl of standard curve reagent and plasma are inserted into a coated 96-well plate, and after that, the culturing is performed for 2 hours at room temperature. The culture medium is removed, and washing is performed 3 times with 100 μl of wash buffer. After adding 100 μl of prepared AFP conjugate to each well, the culturing is performed for 2 hours at room temperature. The culture medium is removed, and washing is performed 3 times with 100 μl of wash buffer. After adding 100 μl of reaction reagent to each well, the culturing is performed for 30 minutes in a dark place. After adding the same amount of reaction stop reagent to each well, tapping is lightly performed to mix thoroughly. With respect to the degree of reaction, after measuring the absorbance at 450 nm, the concentration of AFP is quantified by using a standard curve of a SpectraMax 190 microplate plate reader (Molecular Devices, LCC. San Jose, Calif.). The liver tissue is separated, the number of tumors is measured, and the degree of tumor formation is illustrated by a picture. After fixing 10% formaldehyde for morphological analysis, a paraffin section slide having a thickness of 4 μm is requested to be manufactured by Notus Co., Ltd. After removing paraffin No. 3 with xylene and re-dehydration in 95% and 70% alcohol, staining is performed by using Mayer's Hematoxylin. A male DEN-induced liver cancer mouse model is prepared by intraperitoneal (IP) administration of DEN 25 mg/kg, and the salsolinol 200 mg/kg is administered intraperitoneally to the model, and an effect of the salsolinol on liver cancer treatment is checked.

[4] = SK-Hep1, from KR10-2019-0129765

SMILES: CC1NCCc2cc(O)c(O)cc21 (stereo not shown) [salsolinol, 6,7-dihydroxy-1-methyl-1,2,3,4-tetrahydroisoquinoline]
- Snai1 gene expression level [1]: decreased to the expression level of expression in the normal mouse
- Vimentin gene expression level [1]: decreased to the expression level of expression in the normal mouse
- PARP-cleavage / apoptosis [2]: PARP-cleavage is induced to induce apoptosis
- fibrosis-related genes and active oxygen species [2]: increases fibrosis-related genes and active oxygen species
- STAT3 phosphorylation (SK-Hep1; SK-Hep1, from KR10-2019-0129765, 24 hours): increases signal transducer and transcription 3 (STAT3) phosphorylation
- HO-1 expression (SK-Hep1; [4]): increased
- cytotoxicity (SK-Hep1; [4]): exhibits cytotoxicity
- abnormal types of hepatocytes (H&E staining) ([3]; DEN+SAL liver tissue): not observed
- decrease in number of liver cancer tissues compared with DEN model ([3]; DEN+SAL male mice, salsolinol 200 mg/kg i.p.): about 60%
- weight of the liver tissue ([3]; DEN+SAL male mice, salsolinol 200 mg/kg i.p. three times per week, 6 months): slightly equal to that of the normal mouse
- average number of liver cancer tissues on the liver surface ([3]; DEN+SAL male mice, salsolinol 200 mg/kg i.p., DEN model about 10): four
- plasma AFP level (average) ([3]; DEN+SAL male mice, salsolinol 200 mg/kg i.p., normal mouse 50, DEN model 720 ng/ml): 200 ng/mL
- liver cancer tissue on the liver surface ([3]; normal mouse administered with salsolinol alone (SAL)): no liver cancer tissue is found
